According to patent US11384060B2, “Amide compounds and use thereof” (ALPHALA CO., LTD., priority 2017, dated 2022):
Read-outs that look alike come from different tables or passages of the source.

Tests used:
glucagon receptor (GCGR) = target: T1, glucagon receptor (GCGR) (Homo sapiens, UniProt P47871); assay: I125-glucagon binding assay (competition, GCGR membrane fractions)
T1 construct: expressed in transfected cells; host or cells: CHO-K1 cells overexpressing GCGR (membrane fractions)
In short: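 Competition of 0.0625 nM (final) I^125-glucagon for 30 min at 25° C, after 5 min compound preincubation, using 7.5 μg/well GCGR-overexpressing CHO-K1 membranes in 50 mM Tris pH 7.4, 0.5% BSA. Filtration onto PEI-coated GF/B, micro-beta counting, and non-linear regression gave IC50.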

[1] = target: T2, glucagon receptor (GCGR) overexpressed CHO-K1 cells or human primary hepatocytes (Homo sapiens, UniProt P47871); assay: Glucagon cAMP inhibition assay (Cisbio cAMP Dynamic 2 HTRF); type: cell-based
T2 construct: expressed in transfected cells; host or cells: GCGR overexpressed CHO-K1 cells or human primary hepatocytes (endogenous receptor)
In short: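 HTRF read-out of glucagon-induced cAMP, with IC50 from non-linear regression. Cells (GCGR CHO-K1 or human primary hepatocytes) in HBSS/0.1% BSA/800 nM IBMX took compound dilutions for 30 min (final DMSO 1%), then EC50-level glucagon for 30 min at room temperature, then a 60 min lysis/detection step.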

[2] = competition with I125-glucagon 0.0625 nM, membrane fractions of GCGR overexpressed CHO-K1 cells
[3] = inhibition of glucagon (EC50 concentration) induced cAMP production

T2 sequence (P47871 26-477): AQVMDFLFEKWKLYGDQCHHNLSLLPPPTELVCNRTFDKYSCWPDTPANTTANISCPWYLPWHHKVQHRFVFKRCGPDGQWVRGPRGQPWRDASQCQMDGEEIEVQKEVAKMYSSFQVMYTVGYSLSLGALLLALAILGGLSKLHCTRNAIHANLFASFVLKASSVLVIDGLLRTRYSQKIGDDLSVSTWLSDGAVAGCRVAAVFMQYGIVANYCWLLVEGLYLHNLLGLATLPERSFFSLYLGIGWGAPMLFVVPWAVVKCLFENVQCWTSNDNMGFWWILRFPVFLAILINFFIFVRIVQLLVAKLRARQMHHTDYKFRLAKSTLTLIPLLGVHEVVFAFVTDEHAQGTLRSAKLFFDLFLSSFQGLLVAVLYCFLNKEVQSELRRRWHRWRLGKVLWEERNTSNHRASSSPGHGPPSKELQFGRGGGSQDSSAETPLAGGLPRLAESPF
T1 sequence (P47871 26-477): as above

Structure (SMILES)	IC50 (glucagon receptor (GCGR); [2]) [µM]	IC50 cAMP [1, 3] [µM]	IC50 (glucagon receptor (GCGR)) [µM]	IC50 cAMP [1] [µM]	also measured
CCOC(=O)CCNC(=O)c1ccc(N[C@H](COc2ccc(-c3nc4ccccc4o3)cc2)C(C)C)cc1 [Compound 1-47, Ethyl (S)-3-(4-((1-(4-(benzo[d]oxazol-2-yl)phenoxy)-3-methylbutan-2-yl)amino)benzamido)propanoate]	> 30	0.17			inhibition at 30 µM (glucagon receptor (GCGR); compound at the concentration of 30 μM, read-out: percentage of inhibition (binding)): 56%
Cc1cc(OC[C@@H](Nc2ccc(C(=O)NCCC(=O)O)cc2)C(C)C)cc(C)c1-c1ccc(C(F)(F)F)cc1Cl [Compound 2-11, (S)-3-(4-((1-((2′-chloro-2,6-dimethyl-4′-(trifluoromethyl)-[1,1′-biphenyl]-4-yl)oxy)-3-methylbutan-2-yl)amino)benzamido)propanoic Acid]	0.872	0.2772			
CCOC(=O)CCNC(=O)c1ccc(N[C@@H](Cc2ccc3ccccc3c2)C(=O)Nc2ccc(-c3cc4ccccc4o3)cc2)cc1 [Compound 23-21, Ethyl (S)-3-(4-((1-((4-(benzofuran-2-yl)phenyl)amino)-3-(naphthalen-2-yl)-1-oxopropan-2-yl)amino)benzamido)propanoate]					IC50 (glucagon receptor (GCGR); uM): > 10 µM; IC50 cAMP ([1]; uM): >10 µM
CC(C)C[C@@H](COc1cc(F)c(-c2ccc(Cl)cc2Cl)c(F)c1)Nc1ccc(C(=O)NCCC(=O)O)cc1 [Compound 7-8, (S)-3-(4-((1-((2′,4′-dichloro-2,6-difluoro-[1,1′-biphenyl]-4-yl)oxy)-4-methylpentan-2-yl)amino)benzamido)propanoic Acid]	0.049	0.329			
CCCC[C@@H](COc1ccc(-c2nnc(C(F)(F)F)o2)c(F)c1)Nc1ccc(C(=O)NCCC(=O)O)cc1 [Compound 8-24, (S)-3-(4-((1-(3-fluoro-4-(5-(trifluoromethyl)-1,3,4-oxadiazol-2-yl)phenoxy)hexan-2-yl)amino)benzamido)propanoic Acid]	0.366	2.701			
CC[C@H](C)[C@@H](COc1cc(Cl)c(-c2ccc(C(F)(F)F)cc2F)cc1Cl)Nc1ccc(C(=O)NCCC(=O)O)cc1 [Compound 3-21]	0.295	0.653			
CCCC[C@@H](COc1ccc(-c2ccc(Cl)cc2Cl)c(F)c1)Nc1ccc(C(=O)NCCC(=O)O)cc1 [Compound 8-16, (S)-3-(4-((1-((2′,4′-dichloro-2-fluoro-[1,1′-biphenyl]-4-yl)oxy)hexan-2-yl)amino)benzamido)propanoic Acid]	0.089	0.135			
CC(C)[C@@H](COc1ccc(-c2ccc(C(F)(F)F)nn2)cc1)Nc1ccc(C(=O)NCCC(=O)O)cc1 [Compound 1-29, (S)-3-(4-((3-methyl-1-(4-(6-(trifluoromethyl)pyridazin-3-yl)phenoxy)butan-2-yl)amino)benzamido)propanoic Acid]	2.79	>30			
CC(C)(C)[C@@H](COc1ccc(-c2ccc(Cl)cc2Cl)c(F)c1)Nc1ccc(C(=O)NCCC(=O)O)cc1 [Compound 8-22, (S)-3-(4-((1-((2′,4′-dichloro-2-fluoro-[1,1′-biphenyl]-4-yl)oxy)-3,3-dimethylbutan-2-yl)amino)benzamido)propanoic Acid]	0.068	0.1669			
CC(C)[C@@H](COc1ccc(-c2cc3ccccc3o2)c(Cl)c1)Nc1ccc(C(=O)NCc2nnn[nH]2)cc1 [Compound 3-5, (S)—N-((1H-tetrazol-5-yl)methyl)-4-((1-(4-(benzofuran-2-yl)-3-chlorophenoxy)-3-methylbutan-2-yl)amino)benzamide]	0.117	1.863			
CC(C)[C@@H](COc1ccc(-c2ccc(C(F)(F)F)cn2)cc1)Nc1ccc(C(=O)NCCC(=O)O)cc1 [Compound 1-24, (S)-3-(4-((3-methyl-1-(4-(5-(trifluoromethyl)pyridin-2-yl)phenoxy)butan-2-yl)amino)benzamido)propanoic Acid]	0.134	0.1875			
CC(C)C[C@@H](COc1cc(F)c(-c2ccc(C(F)(F)F)cc2F)c(F)c1)Nc1ccc(C(=O)NCCC(=O)O)cc1 [Compound 7-7, (S)-3-(4-((4-methyl-1-((2,2′,6-trifluoro-4′-(trifluoromethyl)-[1,1′-biphenyl]-4-yl)oxy)pentan-2-yl)amino)benzamido)propanoic Acid]	0.307	0.689			

Continued, in another order:

IC50 (glucagon receptor (GCGR); [2]) [µM]	IC50 cAMP [1, 3] [µM]	IC50 (glucagon receptor (GCGR)) [µM]	IC50 cAMP [1] [µM]	Structure (SMILES)	also measured
		0.453	>30	CCCC[C@@H](COc1ccc(-c2cc3ccccc3o2)cn1)Nc1ccc(C(=O)NCCS(=O)(=O)O)cc1 [Compound 15-23, (S)-2-(4-((1-((5-(benzofuran-2-yl)pyridin-2-yl)oxy)hexan-2-yl)amino)benzamido) ethane-1-sulfonic Acid]	
20	6.494			CC(C)[C@@H](COc1ccc(-c2ccc(C(C)(C)C)cc2)nn1)Nc1ccc(C(=O)NCCC(=O)O)cc1 [Compound 17-12, (S)-3-(4-((1-((6-(4-(tert-buty)phenyl)pyridazin-3-yl)oxy)-3-methylbutan-2-yl)amino)benzamido)propanoic Acid]	
		1.04	4.853	CC(C)[C@H](Nc1ccc(C(=O)NCCC(=O)O)cc1)c1nnc(-c2ccc(C(C)(C)C)cc2)o1 [Compound 20-4, (S)-3-(4-((1-(5-(4-(tert-butyl)phenyl)-1,3,4-oxadiazol-2-yl)-2-methylpropyl)amino)benzamido)propanoic Acid]	
0.511	1.206			CC(C)[C@@H](COc1ccc(-c2ccc(C(F)(F)F)cc2F)nc1)Nc1ccc(C(=O)NCCC(=O)O)cc1 [Compound 10-3, (S)-3-(4-((1-((6-(2-fluoro-4-(trifluoromethyl)phenyl)pyridin-3-yl)oxy)-3-methylbutan-2-yl)amino)benzamido)propanoic Acid]	
		0.388	5.8	Cc1cc(C)c(-c2ccc(NC(=O)[C@H](Cc3ccccc3)Nc3ccc(C(=O)NCCC(=O)O)cc3)cc2)c(C)c1 [Compound 23-3, (S)-3-(4-((1-oxo-3-phenyl-1-((2′,4′,6′-trimethyl-[1,1′-biphenyl]-4-yl)amino)propan-2-yl)amino)benzamido)propanoic Acid]	
		> 30	>30	Cc1c(-c2nnc([C@H](Cc3ccc(-c4ccc(C(F)(F)F)cc4)cc3)Nc3ccc(C(=O)NCCS(=O)(=O)O)cc3)o2)oc2ccccc12 [Compound 20-7, (S)-2-(4-((1-(5-(3-methylbenzofuran-2-yl)-1,3,4-oxadiazol-2-yl)-2-(4′-(trifluoromethyl)-[1,1′-biphenyl]-4-yl)ethyl)amino)benzamido)ethane-1-sulfonic Acid]	
2.6	11.597			CC(C)[C@@H](COc1ccc(-c2ccc(C(F)(F)F)cc2F)nn1)Nc1ccc(C(=O)NCCC(=O)O)cc1 [Compound 17-9]	
0.139	0.716			CC(C)C[C@@H](COc1ccc(-c2ccc(Cl)cc2Cl)nn1)Nc1ccc(C(=O)NCCC(=O)O)cc1 [Compound 17-2, (S)-3-(4-((1-((6-(2,4-dichlorophenyl)pyridazin-3-yl)oxy)-4-methylpentan-2-yl)amino)benzamido)propanoic Acid]	
		0.089	0.168	CCCC[C@@H](COc1ccc(-c2cc3ccccc3o2)cn1)Nc1ccc(C(=O)NCCC(=O)O)cc1 [Compound 15-22, (S)-3-(4-((1-((5-(benzofuran-2-yl)pyridin-2-yl)oxy)hexan-2-yl)amino)benzamido)propanoic Acid]	
		0.216	0.196	CC(C)[C@@H](COc1ccc(-c2ccc(Cl)cc2Cl)cn1)Nc1ccc(C(=O)NCCC(=O)O)cc1 [Compound 15-17, (S)-3-(4-((1-((5-(2,4-dichlorophenyl)pyridin-2-yl)oxy)-3-methylbutan-2-yl)amino)benzamido)propanoic Acid]	
		0.193	1.947	O=C(O)CCNC(=O)c1ccc(N[C@H](Cc2ccc(-c3cc4ccccc4o3)cc2)C(=O)Nc2ccc(C(F)(F)F)cc2)cc1 [Compound 24-20, (R)-3-(4-((3-(4-(benzofuran-2-yl)phenyl)-1-oxo-1-((4-(trifluoromethyl)phenyl)amino)propan-2-yl)amino)benzamido)propanoic Acid]	
		0.386	0.25	CCCC[C@@H](COc1ccc(-c2cc3ccccc3o2)c(C)n1)Nc1ccc(C(=O)NCCC(=O)O)cc1 [Compound 18-1, (S)-3-(4-((1-((5-(benzofuran-2-yl)-6-methylpyridin-2-yl)oxy)hexan-2-yl)amino)benzamido)propanoic Acid]	
0.068	0.131			CC[C@H](C)[C@@H](COc1ccc(-c2ccc(C(F)(F)F)cc2F)c(OC)c1)Nc1ccc(C(=O)NCCC(=O)O)cc1 [Compound 13-4]	
		1.01	1.633	CC(C)[C@H](Nc1ccc(C(=O)NCCC(=O)O)cc1)C(=O)Nc1ccc(-c2cc3ccccc3o2)cc1 [Compound 23-33, (S)-3-(4-((1-((4-(benzofuran-2-yl)phenyl)amino)-3-methyl-1-oxobutan-2-yl)amino)benzamido)propanoic Acid]	
		3	4.558	CC(C)(C)c1nnc(-c2ccc(OC[C@@H](Nc3ccc(C(=O)NCCC(=O)O)cc3)c3ccc(-c4ccc(Cl)cc4Cl)cc3)nc2)o1 [Compound 15-34, (S)-3-(4-((2-((5-(5-(tert-butyl)-1,3,4-oxadiazol-2-yl)pyridin-2-yl)oxy)-1-(2′,4′-dichloro-[1,1′-biphenyl]-4-yl)ethyl)amino)benzamido)propanoic Acid]	
